In ChEMBL document CHEMBL1158303, “Macrocarpals H, I, and J from the Leaves of Eucalyptus globulus” (1996):
≈ marks a conversion by molar mass, not a printed value.

Tests used:
Actinomyces viscosus = experiment: Antibacterial activity against Actinomyces viscosus 15987 by broth dilution method; format: functional
Fusobacterium nucleatum = experiment: Antibacterial activity against Fusobacterium nucleatum 25586 by broth dilution method; format: functional
Streptococcus sobrinus [1] = experiment: Antibacterial activity against Streptococcus sobrinus B13 by broth dilution method; format: functional
Streptococcus mutans [2] = experiment: Antibacterial activity against Streptococcus mutans LA7 by broth dilution method; format: functional
Capnocytophaga ochracea = experiment: Antibacterial activity against Capnocytophaga ochracea 33596 by broth dilution method; format: functional
Streptococcus sobrinus [3] = experiment: Inhibition of Streptococcus sobrinus glucosyltransferase assessed as blockade of adherent water insoluble glucan synthesis at 100 ug/mL
Porphyromonas gingivalis = experiment: Antibacterial activity against Porphyromonas gingivalis 33277 by broth dilution method; format: functional
[4] = system: Prevotella melaninogenica; experiment: Antibacterial activity against Prevotella melaninogenica 25845 by broth dilution method; format: functional
Streptococcus mutans [5] = experiment: Antibacterial activity against Streptococcus mutans Ingbritt by broth dilution method; format: functional
Streptococcus sobrinus [6] = experiment: Antibacterial activity against Streptococcus sobrinus 6715 by broth dilution method; format: functional
Streptococcus sobrinus [7] = experiment: Inhibition of Streptococcus sobrinus glucosyltransferase assessed as blockade of adherent water insoluble glucan synthesis at 10 ug/mL
Streptococcus sobrinus [8] = experiment: Inhibition of Streptococcus sobrinus glucosyltransferase assessed as blockade of adherent water insoluble glucan synthesis at 1 ug/mL
Prevotella intermedia = experiment: Antibacterial activity against Prevotella intermedia 25611 by broth dilution method; format: functional

C=C1CC[C@@H]2[C@H]([C@H]3[C@H]1CC[C@]3(C)[C@@H](CC(C)C)c1c(O)c(C=O)c(O)c(C=O)c1O)C2(C)C [MACROCARPAL C]
MIC (Actinomyces viscosus): 0.2 µg/mL (≈ 0.44 µM) | MIC (Fusobacterium nucleatum): 0.78 µg/mL (≈ 1.72 µM) | MIC (Streptococcus sobrinus [1]): 1.56 µg/mL (≈ 3.43 µM) | MIC (Streptococcus mutans [2]): 0.39 µg/mL (≈ 0.858 µM) | MIC (Capnocytophaga ochracea): 0.39 µg/mL (≈ 0.858 µM) | inhibition (Streptococcus sobrinus [3]): 98.9% | MIC (Porphyromonas gingivalis): 0.2 µg/mL (≈ 0.44 µM) | MIC [4]: 1.56 µg/mL (≈ 3.43 µM) | MIC (Streptococcus mutans [5]): 0.39 µg/mL (≈ 0.858 µM) | MIC (Streptococcus sobrinus [6]): 1.56 µg/mL (≈ 3.43 µM) | inhibition (Streptococcus sobrinus [7]): 92.6% | inhibition (Streptococcus sobrinus [8]): 18.9% | MIC (Prevotella intermedia): 0.39 µg/mL (≈ 0.858 µM)

CC(C)C[C@H](c1c(O)c(C=O)c(O)c(C=O)c1O)[C@@H]1CC[C@@](C)(O)[C@@H]2C[C@H](C(C)(C)O)CC[C@]21C [MACROCARPAL I]
MIC (Actinomyces viscosus): 12.5 µg/mL (≈ 25.5 µM) | MIC (Fusobacterium nucleatum): 25 µg/mL (≈ 51 µM) | MIC (Streptococcus sobrinus [1]): 100 µg/mL (≈ 204 µM) | MIC (Streptococcus mutans [2]): 25 µg/mL (≈ 51 µM) | MIC (Capnocytophaga ochracea): 12.5 µg/mL (≈ 25.5 µM) | inhibition (Streptococcus sobrinus [3]): 86.9% | MIC (Porphyromonas gingivalis): 6.25 µg/mL (≈ 12.7 µM) | MIC [4]: 12.5 µg/mL (≈ 25.5 µM) | MIC (Streptococcus mutans [5]): 50 µg/mL (≈ 102 µM) | MIC (Streptococcus sobrinus [6]): 100 µg/mL (≈ 204 µM) | inhibition (Streptococcus sobrinus [7]): 26.3% | inhibition (Streptococcus sobrinus [8]): 0% | MIC (Prevotella intermedia): 12.5 µg/mL (≈ 25.5 µM)

Cc1ccc(C(C)C)c(O)c1 [THYMOL]
MIC (Actinomyces viscosus): 200 µg/mL (≈ 1330 µM) | MIC (Fusobacterium nucleatum): 50 µg/mL (≈ 333 µM) | MIC (Streptococcus sobrinus [1]): 400 µg/mL (≈ 2660 µM) | MIC (Streptococcus mutans [2]): 400 µg/mL (≈ 2660 µM) | MIC (Capnocytophaga ochracea): 100 µg/mL (≈ 666 µM) | MIC (Porphyromonas gingivalis): 200 µg/mL (≈ 1330 µM) | MIC [4]: 200 µg/mL (≈ 1330 µM) | MIC (Streptococcus mutans [5]): 400 µg/mL (≈ 2660 µM) | MIC (Streptococcus sobrinus [6]): 200 µg/mL (≈ 1330 µM) | MIC (Prevotella intermedia): 200 µg/mL (≈ 1330 µM)

CC(C)C[C@H](c1c(O)c(C=O)c(O)c(C=O)c1O)[C@@]1(C)CC[C@@H]2[C@@H]1[C@H]1[C@@H](CC[C@@]2(C)O)C1(C)C [MACROCARPAL B]
MIC (Actinomyces viscosus): 0.39 µg/mL (≈ 0.825 µM) | MIC (Fusobacterium nucleatum): 3.13 µg/mL (≈ 6.62 µM) | MIC (Streptococcus sobrinus [1]): 3.13 µg/mL (≈ 6.62 µM) | MIC (Streptococcus mutans [2]): 1.56 µg/mL (≈ 3.3 µM) | MIC (Capnocytophaga ochracea): 1.56 µg/mL (≈ 3.3 µM) | inhibition (Streptococcus sobrinus [3]): 97.1% | MIC (Porphyromonas gingivalis): 0.78 µg/mL (≈ 1.65 µM) | MIC [4]: 3.13 µg/mL (≈ 6.62 µM) | MIC (Streptococcus mutans [5]): 3.13 µg/mL (≈ 6.62 µM) | MIC (Streptococcus sobrinus [6]): 3.13 µg/mL (≈ 6.62 µM) | inhibition (Streptococcus sobrinus [7]): 67.6% | inhibition (Streptococcus sobrinus [8]): 10.1% | MIC (Prevotella intermedia): 1.56 µg/mL (≈ 3.3 µM)

CC(C)CC(c1c(O)c(C=O)c(O)c(C=O)c1O)[C@@H]1CC[C@@](C)(O)[C@@H]2C[C@H](C(C)(C)O)CC[C@]21C (some centres not stated) [MACROCARPAL J]
MIC (Actinomyces viscosus): 12.5 µg/mL (≈ 25.5 µM) | MIC (Fusobacterium nucleatum): 25 µg/mL (≈ 51 µM) | MIC (Streptococcus sobrinus [1]): 100 µg/mL (≈ 204 µM) | MIC (Streptococcus mutans [2]): 25 µg/mL (≈ 51 µM) | MIC (Capnocytophaga ochracea): 12.5 µg/mL (≈ 25.5 µM) | inhibition (Streptococcus sobrinus [3]): 77.1% | MIC (Porphyromonas gingivalis): 6.25 µg/mL (≈ 12.7 µM) | MIC [4]: 12.5 µg/mL (≈ 25.5 µM) | MIC (Streptococcus mutans [5]): 50 µg/mL (≈ 102 µM) | MIC (Streptococcus sobrinus [6]): 100 µg/mL (≈ 204 µM) | inhibition (Streptococcus sobrinus [7]): 29.7% | inhibition (Streptococcus sobrinus [8]): 6.9% | MIC (Prevotella intermedia): 12.5 µg/mL (≈ 25.5 µM)

C=C1CC[C@@H]([C@H](CC(C)C)c2c(O)c(C=O)c(O)c(C=O)c2O)[C@]2(C)CC[C@@H](C(C)(C)O)C[C@@H]12 [MACROCARPAL H]
MIC (Actinomyces viscosus): 0.39 µg/mL (≈ 0.825 µM) | MIC (Fusobacterium nucleatum): 6.25 µg/mL (≈ 13.2 µM) | MIC (Streptococcus sobrinus [1]): 3.13 µg/mL (≈ 6.62 µM) | MIC (Streptococcus mutans [2]): 1.56 µg/mL (≈ 3.3 µM) | MIC (Capnocytophaga ochracea): 1.56 µg/mL (≈ 3.3 µM) | inhibition (Streptococcus sobrinus [3]): 97.6% | MIC (Porphyromonas gingivalis): 0.78 µg/mL (≈ 1.65 µM) | MIC [4]: 3.13 µg/mL (≈ 6.62 µM) | MIC (Streptococcus mutans [5]): 3.13 µg/mL (≈ 6.62 µM) | MIC (Streptococcus sobrinus [6]): 3.13 µg/mL (≈ 6.62 µM) | inhibition (Streptococcus sobrinus [7]): 64% | inhibition (Streptococcus sobrinus [8]): 2.9% | MIC (Prevotella intermedia): 0.78 µg/mL (≈ 1.65 µM)

CC(=O)CC[C@@H]1[C@H]([C@H]2C(=O)CC[C@]2(C)C(CC(C)C)c2c(O)c(C=O)c(O)c(C=O)c2O)C1(C)C (some centres not stated) [EUCALYPTONE]
MIC (Actinomyces viscosus): 3.13 µg/mL (≈ 6.43 µM) | MIC (Fusobacterium nucleatum): 6.25 µg/mL (≈ 12.8 µM) | MIC (Streptococcus sobrinus [1]): 25 µg/mL (≈ 51.4 µM) | MIC (Streptococcus mutans [2]): 12.5 µg/mL (≈ 25.7 µM) | MIC (Capnocytophaga ochracea): 3.13 µg/mL (≈ 6.43 µM) | inhibition (Streptococcus sobrinus [3]): 97.6% | MIC (Porphyromonas gingivalis): 1.56 µg/mL (≈ 3.21 µM) | MIC [4]: 3.13 µg/mL (≈ 6.43 µM) | MIC (Streptococcus mutans [5]): 12.5 µg/mL (≈ 25.7 µM) | MIC (Streptococcus sobrinus [6]): 25 µg/mL (≈ 51.4 µM) | inhibition (Streptococcus sobrinus [7]): 44% | inhibition (Streptococcus sobrinus [8]): 4.4% | MIC (Prevotella intermedia): 0.78 µg/mL (≈ 1.6 µM)

CC(C)C[C@@H](c1c(O)c(C=O)c(O)c(C=O)c1O)[C@@]1(C)CC[C@H]2C1=C[C@H](C(C)(C)O)CC[C@H]2C [MACROCARPAL D]
MIC (Actinomyces viscosus): 0.39 µg/mL (≈ 0.825 µM) | MIC (Fusobacterium nucleatum): 6.25 µg/mL (≈ 13.2 µM) | MIC (Streptococcus sobrinus [1]): 0.78 µg/mL (≈ 1.65 µM) | MIC (Streptococcus mutans [2]): 0.78 µg/mL (≈ 1.65 µM) | MIC (Capnocytophaga ochracea): 1.56 µg/mL (≈ 3.3 µM) | inhibition (Streptococcus sobrinus [3]): 99% | MIC (Porphyromonas gingivalis): 0.39 µg/mL (≈ 0.825 µM) | MIC [4]: 1.56 µg/mL (≈ 3.3 µM) | MIC (Streptococcus mutans [5]): 1.56 µg/mL (≈ 3.3 µM) | MIC (Streptococcus sobrinus [6]): 3.13 µg/mL (≈ 6.62 µM) | inhibition (Streptococcus sobrinus [7]): 78.2% | inhibition (Streptococcus sobrinus [8]): 17.3% | MIC (Prevotella intermedia): 0.39 µg/mL (≈ 0.825 µM)

O=C(O[C@@H]1Cc2c(O)cc(O)cc2O[C@@H]1c1cc(O)c(O)c(O)c1)c1cc(O)c(O)c(O)c1
inhibition (Streptococcus sobrinus [3]): 26.5% | inhibition (Streptococcus sobrinus [7]): 10.5% | inhibition (Streptococcus sobrinus [8]): 3%

CC(C)C[C@@H](c1c(O)c(C=O)c(O)c(C=O)c1O)[C@@]1(C)CC[C@@H]2[C@@H]1[C@H]1[C@@H](CC[C@@]2(C)O)C1(C)C [MACROCARPAL A]
MIC (Actinomyces viscosus): 0.39 µg/mL (≈ 0.825 µM) | MIC (Fusobacterium nucleatum): 6.25 µg/mL (≈ 13.2 µM) | MIC (Streptococcus sobrinus [1]): 1.56 µg/mL (≈ 3.3 µM) | MIC (Streptococcus mutans [2]): 0.78 µg/mL (≈ 1.65 µM) | MIC (Capnocytophaga ochracea): 0.78 µg/mL (≈ 1.65 µM) | inhibition (Streptococcus sobrinus [3]): 97.1% | MIC (Porphyromonas gingivalis): 0.39 µg/mL (≈ 0.825 µM) | MIC [4]: 0.78 µg/mL (≈ 1.65 µM) | MIC (Streptococcus mutans [5]): 0.78 µg/mL (≈ 1.65 µM) | MIC (Streptococcus sobrinus [6]): 1.56 µg/mL (≈ 3.3 µM) | inhibition (Streptococcus sobrinus [7]): 75.4% | inhibition (Streptococcus sobrinus [8]): 9.7% | MIC (Prevotella intermedia): 0.39 µg/mL (≈ 0.825 µM)
